Test results as given in patent publication US7285572B2, “CaSR antagonist” (Japan Tobacco Inc., priority 2003, dated 2007).
Values belong to the molecule of their own block, whether it stands above or below them.

Experiments:
human calcium receptor = target: T1, human calcium receptor (Homo sapiens, UniProt P41180); assay: Evaluation of antagonistic action on calcium receptor using reporter gene (luciferase); assay type: cell-based; conditions: rat adrenal derived cells with luciferase and human calcium receptor cDNA, 5 mM calcium chloride, 4 hrs; read-out: IC50 (concentration showing 50% inhibitory rate of luciferase activity)
T1 construct: expressed in transfected cells; host or cells: cell strain derived from rat adrenal, co-transfected with luciferase cDNA
T1 sequence (P41180 20-1078): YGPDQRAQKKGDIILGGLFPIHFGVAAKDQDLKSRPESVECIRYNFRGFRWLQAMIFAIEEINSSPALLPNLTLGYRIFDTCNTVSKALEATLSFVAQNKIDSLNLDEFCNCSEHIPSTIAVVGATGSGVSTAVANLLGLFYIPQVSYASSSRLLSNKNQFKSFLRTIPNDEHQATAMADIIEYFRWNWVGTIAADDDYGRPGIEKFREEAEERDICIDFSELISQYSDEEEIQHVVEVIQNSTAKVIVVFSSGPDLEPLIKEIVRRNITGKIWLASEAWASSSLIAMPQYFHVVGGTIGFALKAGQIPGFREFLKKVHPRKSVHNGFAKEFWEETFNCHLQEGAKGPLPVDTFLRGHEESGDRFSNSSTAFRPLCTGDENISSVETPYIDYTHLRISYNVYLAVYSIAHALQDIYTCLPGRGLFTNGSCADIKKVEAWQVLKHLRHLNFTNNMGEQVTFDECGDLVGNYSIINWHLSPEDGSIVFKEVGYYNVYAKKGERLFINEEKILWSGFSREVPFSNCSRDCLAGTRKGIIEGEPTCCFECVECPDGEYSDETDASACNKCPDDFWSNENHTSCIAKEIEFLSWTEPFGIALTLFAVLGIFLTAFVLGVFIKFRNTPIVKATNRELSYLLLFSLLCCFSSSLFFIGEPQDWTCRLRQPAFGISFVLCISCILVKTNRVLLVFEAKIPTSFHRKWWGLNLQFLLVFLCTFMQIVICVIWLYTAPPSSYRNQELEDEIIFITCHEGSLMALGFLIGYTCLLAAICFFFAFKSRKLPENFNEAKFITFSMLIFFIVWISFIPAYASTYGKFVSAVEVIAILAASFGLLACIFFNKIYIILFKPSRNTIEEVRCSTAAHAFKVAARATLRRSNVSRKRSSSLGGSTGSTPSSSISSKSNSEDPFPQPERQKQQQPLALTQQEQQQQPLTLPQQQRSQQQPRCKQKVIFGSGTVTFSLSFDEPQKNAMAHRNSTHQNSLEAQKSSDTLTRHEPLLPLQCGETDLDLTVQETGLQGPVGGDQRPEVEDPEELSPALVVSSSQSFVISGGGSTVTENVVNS
Procedure: Evaluation of Antagonistic Action on Calcium Receptor Using Reporter Gene
Luciferase cDNA and human calcium receptor cDNA were introduced into a cell strain derived from rat adrenal to transform the cells, and the transformed cells were cultured in a medium (80 μl, F12 medium containing 0.5% dialyzed horse serum and 0.25% dialyzed bovine fetal serum). A dimethyl sulfoxide solution containing a test compound at 0.1-10000 μM was diluted 100-fold with the medium and added to the test compound group at 10 μl per well (final concentration of dimethyl sulfoxide is 0.1%). In the same manner as in test compound group, dimethyl sulfoxide diluted 100-fold with medium was added to a control group and a blank group. Then, 50 mM calcium chloride-containing medium was added to every well except the blank group at 10 μl per well (final concentration is 5 mM). A medium alone was added to the blank group. After culture for 4 hrs, luciferase substrate was added and the luciferase activity was measured with a photoluminometer. The inhibitory rate (%) was calculated from the obtained measured values according to the following formula.
Based on the results, the concentration (IC50) showing 50% inhibitory rate was determined.

CYP2D6 = target: T2, CYP2D6 (Homo sapiens, UniProt P10635); assay: Metabolic enzyme CYP2D6 inhibitory activity (BD Bioscience kit); assay type: in vitro ADME; conditions: enzyme activity free of test compound as 100%; read-out: CYP2D6 IC50 (concentration showing 50% inhibition)
T2 construct: purchased BD Bioscience
T2 sequence (P10635 whole entry): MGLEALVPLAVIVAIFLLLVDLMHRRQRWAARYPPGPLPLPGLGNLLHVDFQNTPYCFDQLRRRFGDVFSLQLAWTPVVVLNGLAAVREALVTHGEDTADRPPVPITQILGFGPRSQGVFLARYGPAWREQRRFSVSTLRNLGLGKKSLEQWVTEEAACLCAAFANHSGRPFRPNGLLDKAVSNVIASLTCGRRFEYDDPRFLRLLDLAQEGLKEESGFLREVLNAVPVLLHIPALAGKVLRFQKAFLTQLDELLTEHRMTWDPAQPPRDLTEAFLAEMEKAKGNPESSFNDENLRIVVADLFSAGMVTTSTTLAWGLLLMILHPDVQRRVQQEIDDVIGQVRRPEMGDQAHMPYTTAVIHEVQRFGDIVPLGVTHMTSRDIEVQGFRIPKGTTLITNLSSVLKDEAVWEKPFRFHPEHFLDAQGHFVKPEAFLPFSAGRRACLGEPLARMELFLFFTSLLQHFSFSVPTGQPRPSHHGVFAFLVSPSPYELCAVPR
Procedure: Metabolic Enzyme CYP2D6 Inhibitory Activity
Using a metabolic enzyme CYP2D6 inhibition measurement kit (BD Bioscience) and following the manual of the kit, the inhibitory activity of the test compound was measured. With the enzyme activity free of the test compound as 100%, the concentration (IC50) showing 50% inhibition was determined. The results are shown in Table 8, wherein “>10” means over 10 μM.

PTH secretion [1] = assay: PTH secretagogue action, oral administration to fasted male SD rats, serum PTH by ELISA; assay type: in vivo, rat; conditions: 3 mg/kg oral, test compound administration group
Procedure: The test compound was orally administered to 5 to 9-week-old male SD rats (Charles River Japan, Inc.) fasted for 20 hr, using a solvent (0.5% aqueous methyl cellulose solution) at a dose of 3 mg/5 ml/kg or 30 mg/5 ml/kg. A solvent alone was orally administered to the control group at a dose of 5 ml/kg. The blood was drawn from the tail vein 15 min, 30 min, 60 min and 120 min after the administration of the test compound, and serum was obtained. The serum PTH concentration was measured using rat PTH ELISA kit (Amersham Biosciences).

PTH secretion [2] = assay: Reproductive test of NPS-2143 of the reference (PTH secretion); assay type: in vivo
PTH release = conditions: cited from earlier work
[3] = tested on: osteoblast and osteoclast; conditions: in vitro; cited from earlier work

SMILES: C[C@@H](OC[C@H](O)CNC(C)(C)Cc1ccc2ccccc2c1)c1ccccc1-c1ccc(P(=O)(O)O)cc1 [Example 12, Disodium [2′-[(1R)-1-[(2R)-2-hydroxy-3-[[2-methyl-1-(naphthalen-2-yl)propan-2-yl]amino]propoxy]ethyl]biphenyl-4-yl]phosphonate]
- IC50 (human calcium receptor): 29 nM
- IC50 (CYP2D6): > 10000 nM

- IC50 (human calcium receptor): 25 nM
- IC50 (CYP2D6): 9500 nM
SMILES: C[C@@H](OC[C@H](O)CNC(C)(C)Cc1ccc2ccccc2c1)c1ccccc1CCC(=O)O [Example 1, 3-[2-[(1R)-1-[(2R)-2-hydroxy-3-[[2-methyl-1-(naphthalen-2-yl)propan-2-yl]amino]propoxy]ethyl]phenyl]propionic acid]
- serum PTH concentration 15 min later (PTH secretion [1]): 24.86 ± 3.59 pg/mL
- serum PTH concentration 30 min later (PTH secretion [1]): 18.58 ± 2.15 pg/mL

SMILES: CC(C)(Cc1ccc2ccccc2c1)NC[C@@H](O)COc1cccc(Cl)c1C#N [NPS-2143]
- PTH secretion promoting action (duration) (PTH secretion [2]): sustained PTH secretion promoting action
- blood concentration of NPS-2143 8 hours after the administration (PTH release; 100 μmol/kg, OVX rat): not less than 100 ng/ml
- blood concentration of NPS-2143 24 hours later (PTH release; 100 μmol/kg, OVX rat): ≤ 10 ng/mL
- blood PTH concentration 4 hours later (PTH release; NPS-2143 100 μmol/kg, OVX rat): about 140 pg/ml
- blood PTH concentration in 30 minutes (PTH release; NPS-2143 100 μmol/kg, OVX rat): about 115 pg/ml
- bone decrease or bone increase (PTH release; oral, OVX rats): free of bone decrease or bone increase
- release of PTH (PTH release; oral, OVX rats): significantly promotes release of PTH
- direct effect on osteoblast and osteoclast [3]: did not show any direct effect
